Tested on: glycation of the extra-cellular matrix (ECM)
Assay: Glycation of the extra-cellular matrix (ECM) of fibroblasts: EFA content by dot blot and densitometric analysis
Type: cell-based, human
Conditions: 1 mg/ml
Experimental: Human normal fibroblasts were cultured at 37° C. in the presence of DMEM (Invitrogen) containing 10% of fetal bovine serum (Invitrogen) and 50 UI/ml of penicillin, 50 μg/ml of […] (Invitrogen) and 2 mM of glutamin. Collagen synthesis was stimulated by culturing cells in the presence of vitamin C at 20 μg/ml (Sigma) for 5 days. The cells were then washed with PBS and lysed by successive cycles of freezing and thawing.
Except for the controls, cell layers had previously been treated with Butea frondosa (at 0.02; 0.1 and 0.5%), which was prepared according to Example 1 or with a reference compound: aminoguanidin at 1 mg/ml (Sigma). The cells were then incubated in the presence of 0.1 mg/ml glucose. Each of the treatments was performed, in triplicate, for 15 days at 37° C. with 5% CO2.
At the end of the incubation period, ECM proteins (essentially collagen) were extracted, and the samples were then transferred onto a nitrocellulose membrane (Hybrond, ECL, Amersham) by means of a Milliblot dotblot (Millipore). All the controls were carried out in order to assess the specificity of the final response. No interference was observed. […]
The following table illustrates the effect of this treatment on glucose incorporation into macromolecules synthetised by fibroblasts. The presence of EFA was measured by dot blot analysis and densitometric analysis.

N=C(N)NN [Aminoguanidin, aminoguanidin]
Inhibition of EFA content compared to the control: 35%
EFA content relative to control (15 days, 0.1 mg/ml glucose, control 100%): 65%

Source: patent US20100184867A1, “USE OF ACTIVE AGENTS FOR STIMULATING THE EXPRESSION OF FN3K AND/OR FN3K RP FOR COMBATING AGEING OF THE SKIN” (CHANEL PARFUMS BEAUTE, priority 2007, published 2010)
